Experimental data: US12195551B2, “Combination of an ErbB-2/ErbB-3 bispecific antibody with endocrine therapy for breast cancer” (Merus N.V., priority 2017, dated 2025)

Key:
[1] = system: HBCx-34 PDX model; conditions: model characterisation; cited from earlier work
[2] = system: HER2; assay: Reverse phase protein array (RPPA) in MCF-7 tumor xenografts: HER2; format: in vivo, human; conditions: vs vehicle group, one-way ANOVA
Description: FIG. 9. Reverse phase protein array (RPPA) in MCF-7 tumor xenografts treated with vehicle, MCLA-128, Fulvestrant, Tamoxifen, MCLA-128+ Fulvestrant or MCLA-128+ Tamoxifen. Proteins detected in this assay included (phospho)-Akt and (phospho)-HER3 (full data provided in Appendix 4). One-way ANOVA compared levels in all tumors derived from treatment groups with those derived from the PBS group. ** indicates P<0.01.
Tumors from groups 1-6 were collected when they had reached the maximum tolerated volume, or at the end of the experiment at day 39, which was 10 days after the last dose. Per treatment group, six tumors were included in the Reverse phase protein array (RPPA). The selection of tumors was made so that the average tumor size of the 6 specimens was close to that of the whole group. RPPA analysis was performed as follows: tumors were sectioned and placed on immunohistochemistry slides. Stromal and inflammatory content was macrodissected to purify for tumors cells. Protein lysates were prepared and protein content was quantified. […] Reverse phase protein array (RPPA) data were analyzed using one-way ANOVA to detect significant differences between the treatment groups and the vehicle group. […] Total ERK levels were increased in the single agent groups only, no differences were measured in the other groups or in the phosphorylated ERK analysis. […]

[3] = system: MCF-7 human breast carcinoma; assay: Efficacy in nude mouse xenograft model of MCF-7 human breast carcinoma; format: in vivo
Experimental: MCLA-128 was evaluated as monotherapy and in combination with the SERM Tamoxifen and SERD Fulvestrant (Faslodex®) for efficacy in a nude mouse xenograft model of estrogen responsive MCF-7 human breast carcinoma. The study design also included tumor collection for downstream analysis.
Treatments began on D1 in mice with established subcutaneous MCF-7 tumors. The study endpoint was intended to be a tumor volume endpoint of 1000 mm3 45 days, whichever came first. […] Tumor regressions, mean tumor growth, and treatment tolerability also were considered.
The animals were fed ad libitum water (reverse osmosis, 1 ppm Cl) and NIH 31 Modified and Irradiated Lab Diet® consisting of 18.0% crude protein, 6.0% crude fat, and 5.0% crude fiber. The mice were housed on irradiated Enrich-o'Cobs™ Laboratory Animal Bedding in static 85 microisolators on a 12-hour light cycle at […] (68-72° F.) and 40-60% humidity.
Three days prior to tumor cell implantation, estrogen pellets (0.36 mg estradiol, 60-day release, Innovative Research of America, Sarasota, FL) were implanted subcutaneously between the scapulae of all test animals using a sterilized trocar.
Xenografts were initiated with cultured MCF-7 human breast carcinoma cells. Tumor cells were grown to mid-log phase in RPMI-1640 medium containing 10% fetal bovine serum, 100 units/mL penicillin G, 100 μg/mL streptomycin sulfate, 2 mM glutamine, 10 mM HEPES, 0.075% sodium bicarbonate and 25 μg/mL gentamicin. On the day of tumor cell implant, the cells were trypsinized, pelleted, and resuspended in phosphate buffered saline (PBS) at a concentration of 1×10e8 cells/mL. Each test mouse received 1×10e7 MCF-7 cells implanted subcutaneously in the right flank, and tumor growth was monitored as their mean volume approached the desired 100 to 150 mm3 range.
Nineteen days after tumor cell implantation, designated as D1 of the study, the mice were placed into six groups of 15 animals and four groups of six animals, Individual tumor volumes ranged from 75 to 196 mm3 and group mean tumor volumes of 134-137 mm3 on D1. Tumor weight was estimated with the assumption that 1 mg is equivalent to 1 mm3 of tumor volume.
MCLA-128 was stored at 4° C., was provided pre-formulated at 2.5 mg/mL and ready to dose as 25 mg/kg in a 10 mL/kg dose volume, and was protected from light during storage and handling. Tamoxifen (Sigma-25 Aldrich. Lot No. WXBB5732V) was received as a powder and was stored at 4° C. protected from light. Each week, a 5 mg/mL dose solution was prepared in corn oil, and each mouse received 0.2 mL for a dose of 1 mg/animal. The dose solution was stored at 4° C. Fulvestrant tradename Faslodex® (AstraZeneca, Lot No. LV032, LW466, and LX432) was received as 50 mg/mL stock solution that was stored at 4° C. Each dosing day, the stock was diluted in corn oil to 25 mg/mL, and each mouse received 0.2 mL for a dose of 5 mg/animal.
Groups 1 and 7 served as controls for efficacy and sampling, respectively, and received MCLA-128 vehicle intraperitoneally (i.p.) on D1, 4, 8, 11, 15, 18, 22, 25, and 29 and corn oil subcutaneously (s.c.) every other day for fifteen doses (qod×15). Groups 2 and 8 were administered MCLA-128 at 25 mg/kg, i.p., on the same schedule as MCLA-128 vehicle. Groups 3 and 9 were administered Faslodex® at 5.0 mg/animal, s.c., once weekly for five weeks (qwk×5). Group 4 was administered Tamoxifen at 1 mg/animal, s.c., qod×15. Groups 5 and 10 received MCLA-128 and Faslodex®, on the regimens described above. Group 6 received MCLA-128 and Tamoxifen on the regimens described above.
MCLA-128 was administered at a 10 mL/kg dose volume, scaled to the individual body weight of each animal.

## CCCCCOC(=O)Nc1nc(=O)n([C@@H]2O[C@H](C)[C@@H](O)[C@H]2O)cc1F [Capecitabine]
[1]
  response of the HBCx-34 PDX model: responder

## CC(=O)O[C@@]12CO[C@@H]1C[C@H](O)[C@@]1(C)C(=O)[C@H](O)C3=C(C)[C@@H](OC(=O)[C@H](O)[C@@H](NC(=O)OC(C)(C)C)c4ccccc4)C[C@@](O)([C@@H](OC(=O)c4ccccc4)[C@H]21)C3(C)C [Docetaxel]
[1]
  response of the HBCx-34 PDX model: responder

## CC/C(=C(\c1ccccc1)c1ccc(OCCN(C)C)cc1)c1ccccc1 [Tamoxifen]
[2]
  Total HER2 levels (RPPA): significantly increased
[1]
  response of the HBCx-34 PDX model: responder
[3]; D25, relative to the control group, MCLA-128 25 mg/kg i.p., Faslodex 5.0 mg/animal, Tamoxifen 1 mg/animal
  % TGI (tumor growth inhibition): 69%
[3]; D25, MCLA-128 25 mg/kg i.p., Faslodex 5.0 mg/animal s.c. qwk×5, Tamoxifen 1 mg/animal s.c. qod×15
  median tumor volume: 184 mm3
[3]; D25 tumor volumes, Mann-Whitney test
  P relative to the control group: < 0.001
[3]; MCF-7 nude mouse xenograft model
  anti-tumor efficacy / survival benefit (in words): significantly reduced tumor growth
